Literature values as cited in patent publication US8377976B2, “N-hydroxyamidinoheterocycles as modulators of indoleamine 2,3-dioxygenase” (Incyte Corporation, priority 2006, dated 2013).

How the values were obtained:
[1] = test system: peripheral blood lymphocytes (PBLs); conditions: HeLa cells co-cultured with PBLs
[2] = test system: allogeneic concepti; conditions: pregnant mice exposed to 1MT
[3] = test system: tumor growth; conditions: mice
[4] = test system: CD123-positive dendritic cells; conditions: mature and immature CD123-positive dendritic cells
[5] = test system: LLC tumors; conditions: C57B1/6 mice, versus placebo
[6] = test system: P815 tumor; conditions: pre-immunized immune-competent mice

SMILES: Cn1cc(C[C@H](N)C(=O)O)c2ccccc21 [Example 1-MT, 1-methyl-tryptophan]
- reduction in PBL proliferation upon treatment with interleukin-2 (IL2) [1]: reversed
- rejection of concepti [2]: rapid, T cell-induced rejection of all allogeneic concepti
- tumor growth in combination with chemotherapeutic agents [3]: synergize with chemotherapeutic agents to reduce tumor growth
- IDO suppressive activity on T-cell activity [4]: blocked
- formation of tumors [5]: markedly delayed
- growth of tumors [6]: inhibited
